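Five compound concentrations were applied to cells in 96-well plates for 48 hours; endpoints were derived by simple linear interpolation of the resulting dose-response curve. At the GI50, growth is halved.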 Active and inactive are the calls of the source. Cut-off read from the data, not from the text of the source: active = GI50 up to about 1.1 µM and inactive = higher.
Experiments:
Experiment in all cases: DTP human tumour cell line panel, 48 h
NCI-H460 = test system: NCI-H460
OVCAR-8 = test system: OVCAR-8
MDA-MB-231 = test system: MDA-MB-231
SF-539 = test system: SF-539
ACHN = test system: ACHN
OVCAR-3 = test system: OVCAR-3
IGROV-1 = test system: IGROV-1
TK-10 = test system: TK-10
HCC 2998 = test system: HCC 2998
SN12C = test system: SN12C
SK-MEL-28 = test system: SK-MEL-28
SNB-75 = test system: SNB-75
MOLT-4 = test system: MOLT-4
HT-29 = test system: HT-29
CCRF-CEM = test system: CCRF-CEM
MDA-MB-435 = test system: MDA-MB-435
A549 = test system: A549
SNB-19 = test system: SNB-19
UO-31 = test system: UO-31
M14 = test system: M14
SR = test system: SR
NCI-H522 = test system: NCI-H522
Hs-578T = test system: Hs-578T
UACC-257 = test system: UACC-257
SK-MEL-2 = test system: SK-MEL-2
LOX IMVI = test system: LOX IMVI
MCF7 = test system: MCF7
HCT-15 = test system: HCT-15
RXF 393 = test system: RXF 393
EKVX = test system: EKVX
SW-620 = test system: SW-620
NCI-H226 = test system: NCI-H226
HOP-92 = test system: HOP-92
COLO 205 = test system: COLO 205
786-0 = test system: 786-0
SK-MEL-5 = test system: SK-MEL-5
SF-295 = test system: SF-295
KM12 = test system: KM12
A498 = test system: A498
HL-60 = test system: HL-60
DU-145 = test system: DU-145
SK-OV-3 = test system: SK-OV-3
U-251 = test system: U-251
OVCAR-5 = test system: OVCAR-5
UACC-62 = test system: UACC-62
HCT-116 = test system: HCT-116
PC-3 = test system: PC-3
T47D = test system: T47D
SF-268 = test system: SF-268
RPMI-8226 = test system: RPMI-8226
NCI/ADR-RES = test system: NCI/ADR-RES
Malme-3M = test system: Malme-3M
MDA-N = test system: MDA-N
OVCAR-4 = test system: OVCAR-4
BT-549 = test system: BT-549
CAKI-1 = test system: CAKI-1
K562 = test system: K562
NCI-H23 = test system: NCI-H23
HOP-62 = test system: HOP-62

In the case of `Oc1ncc(Cl)c(O)n1`, the GI50 (NCI-H460) is reported as > 100 µM (inactive), the GI50 (OVCAR-8) is reported as > 100 µM (inactive) and the GI50 (MDA-MB-231) is reported as > 100 µM (inactive). The GI50 (SF-539) was > 100 µM (inactive), the GI50 (ACHN) was > 100 µM (inactive) and the GI50 (OVCAR-3) was > 100 µM (inactive). For the same molecule, the GI50 (IGROV-1) was > 100 µM (inactive), the GI50 (TK-10) was > 100 µM (inactive) and the GI50 (HCC 2998) was > 100 µM (inactive). For the same molecule, the GI50 (SN12C) was > 100 µM (inactive), the GI50 (SK-MEL-28) was > 100 µM (inactive) and the GI50 (SNB-75) was > 100 µM (inactive). The GI50 (MOLT-4) was > 100 µM (inactive), the GI50 (HT-29) was > 100 µM (inactive) and the GI50 (CCRF-CEM) was > 100 µM (inactive). The GI50 (MDA-MB-435) was > 100 µM (inactive), the GI50 (A549) was > 100 µM (inactive) and the GI50 (SNB-19) was > 100 µM (inactive). For the same molecule, the GI50 (UO-31) was > 100 µM (inactive), the GI50 (M14) was > 100 µM (inactive) and the GI50 (SR) was > 100 µM (inactive). The GI50 (NCI-H522) was > 100 µM (inactive), the GI50 (Hs-578T) was > 100 µM (inactive) and the GI50 (UACC-257) was > 100 µM (inactive). The GI50 (SK-MEL-2) was > 100 µM (inactive), the GI50 (LOX IMVI) was > 100 µM (inactive) and the GI50 (MCF7) was > 100 µM (inactive). The GI50 (HCT-15) was greater than 100 µM, the GI50 (RXF 393) was > 100 µM (inactive) and the GI50 (EKVX) was > 100 µM (inactive). For the same molecule, the GI50 (SW-620) was > 100 µM (inactive), the GI50 (NCI-H226) was > 100 µM (inactive) and the GI50 (HOP-92) was > 100 µM (inactive). The GI50 (COLO 205) was > 100 µM (inactive), the GI50 (786-0) was > 100 µM (inactive) and the GI50 (SK-MEL-5) was > 100 µM (inactive). For the same molecule, the GI50 (SF-295) was > 100 µM (inactive), the GI50 (KM12) was > 100 µM (inactive) and the GI50 (A498) was > 100 µM (inactive). The GI50 (HL-60) was > 100 µM (inactive), the GI50 (DU-145) was > 100 µM (inactive) and the GI50 (SK-OV-3) was > 100 µM (inactive). For the same molecule, the GI50 (U-251) was > 100 µM (inactive), the GI50 (OVCAR-5) was > 100 µM (inactive) and the GI50 (UACC-62) was > 100 µM (inactive). For the same molecule, the GI50 (HCT-116) was > 100 µM (inactive), the GI50 (PC-3) was > 100 µM (inactive) and the GI50 (T47D) was > 100 µM (inactive). For the same molecule, the GI50 (SF-268) was > 100 µM (inactive), the GI50 (RPMI-8226) was > 100 µM (inactive) and the GI50 (NCI/ADR-RES) was > 100 µM (inactive). The GI50 (Malme-3M) was > 100 µM (inactive), the GI50 (MDA-N) was > 100 µM (inactive) and the GI50 (OVCAR-4) was > 100 µM (inactive). For the same molecule, the GI50 (BT-549) was > 100 µM (inactive), the GI50 (CAKI-1) was > 100 µM (inactive) and the GI50 (K562) was > 100 µM (inactive). For the same molecule, the GI50 (NCI-H23) was > 100 µM (inactive).

For `c1ccc(-c2cn3c(nc4ccccc43)c(-c3ccccc3)n2)cc1`, the GI50 (NCI-H460) was 58.1 µM (inactive), the GI50 (OVCAR-8) was 13.3 µM (inactive) and the GI50 (MDA-MB-231) was > 100 µM (inactive). The GI50 (HOP-62) was 7.13 µM (inactive), the GI50 (SF-539) was 27.9 µM (inactive) and the GI50 (ACHN) was > 100 µM (inactive). For the same molecule, the GI50 (OVCAR-3) was > 100 µM (inactive), the GI50 (IGROV-1) was 42.9 µM (inactive) and the GI50 (TK-10) was > 59.6 µM (inactive). The GI50 (HCC 2998) was > 100 µM (inactive), the GI50 (SN12C) was 65.8 µM (inactive) and the GI50 (SK-MEL-28) was > 100 µM (inactive). For the same molecule, the GI50 (SNB-75) was 14.5 µM (inactive), the GI50 (MOLT-4) was > 100 µM (inactive) and the GI50 (HT-29) was 71 µM (inactive). For the same molecule, the GI50 (CCRF-CEM) was > 100 µM (inactive), the GI50 (MDA-MB-435) was > 87.7 µM (inactive) and the GI50 (A549) was > 68.7 µM (inactive). For the same molecule, the GI50 (SNB-19) was 16.8 µM (inactive), the GI50 (UO-31) was 37.7 µM (inactive) and the GI50 (M14) was > 100 µM (inactive). The GI50 (SR) was > 100 µM (inactive), the GI50 (NCI-H522) was 35.2 µM (inactive) and the GI50 (Hs-578T) was 16.3 µM (inactive). For the same molecule, the GI50 (UACC-257) was > 100 µM (inactive), the GI50 (SK-MEL-2) was 30.1 µM (inactive) and the GI50 (LOX IMVI) was 81.8 µM (inactive). The GI50 (MCF7) was 69.7 µM (inactive), the GI50 (HCT-15) was greater than 100 µM and the GI50 (RXF 393) was > 38 µM (inactive). The GI50 (EKVX) was > 100 µM (inactive), the GI50 (SW-620) was > 100 µM (inactive) and the GI50 (NCI-H226) was > 60.8 µM (inactive). For the same molecule, the GI50 (HOP-92) was 16.9 µM (inactive), the GI50 (COLO 205) was > 100 µM (inactive) and the GI50 (786-0) was 16.1 µM (inactive). The GI50 (SK-MEL-5) was 84.3 µM (inactive), the GI50 (SF-295) was 14.8 µM (inactive) and the GI50 (KM12) was > 100 µM (inactive). For the same molecule, the GI50 (A498) was 44.6 µM (inactive), the GI50 (HL-60) was > 100 µM (inactive) and the GI50 (DU-145) was > 100 µM (inactive). The GI50 (SK-OV-3) was 10.2 µM (inactive), the GI50 (U-251) was 14.2 µM (inactive) and the GI50 (OVCAR-5) was > 54.2 µM (inactive). The GI50 (UACC-62) was 12.4 µM (inactive), the GI50 (HCT-116) was > 86.9 µM (inactive) and the GI50 (PC-3) was > 57.7 µM (inactive). For the same molecule, the GI50 (T47D) was > 39.6 µM (inactive), the GI50 (SF-268) was > 50.6 µM (inactive) and the GI50 (RPMI-8226) was > 100 µM (inactive). The GI50 (NCI/ADR-RES) was 47.6 µM (inactive), the GI50 (Malme-3M) was > 96.2 µM (inactive) and the GI50 (MDA-N) was > 31.6 µM (inactive). The GI50 (OVCAR-4) was 4.56 µM (inactive), the GI50 (BT-549) was 29.4 µM (inactive) and the GI50 (CAKI-1) was > 48.9 µM (inactive). The GI50 (K562) was > 100 µM (inactive) and the GI50 (NCI-H23) was 55.2 µM (inactive).

`O=C(Cc1ccc(Cl)c(Cl)c1)N(CCc1ccc(Cl)c(Cl)c1)CCN1CCCC1` was tested, and the GI50 (NCI-H460) was 1.85 µM (inactive), the GI50 (OVCAR-8) was 1.93 µM (inactive) and the GI50 (MDA-MB-231) was 1.76 µM (inactive). The GI50 (HOP-62) was 1.79 µM (inactive), the GI50 (SF-539) was 1.75 µM (inactive) and the GI50 (ACHN) was 1.71 µM (inactive). For the same molecule, the GI50 (OVCAR-3) was 2.26 µM (inactive), the GI50 (IGROV-1) was 1.74 µM (inactive) and the GI50 (TK-10) was 1.81 µM (inactive). The GI50 (HCC 2998) was 1.81 µM (inactive), the GI50 (SN12C) was 1.73 µM (inactive) and the GI50 (SK-MEL-28) was 1.43 µM (inactive). For the same molecule, the GI50 (SNB-75) was 2.05 µM (inactive), the GI50 (MOLT-4) was 1.34 µM (inactive) and the GI50 (HT-29) was 1.86 µM (inactive). The GI50 (CCRF-CEM) was 1.31 µM (inactive), the GI50 (MDA-MB-435) was 1.77 µM (inactive) and the GI50 (A549) was 2.01 µM (inactive). The GI50 (SNB-19) was 2.15 µM (inactive), the GI50 (UO-31) was 1.85 µM (inactive) and the GI50 (M14) was 1.77 µM (inactive). The GI50 (SR) was 1.39 µM (inactive), the GI50 (NCI-H522) was 1.77 µM (inactive) and the GI50 (Hs-578T) was 2.98 µM (inactive). The GI50 (UACC-257) was 1.91 µM (inactive), the GI50 (SK-MEL-2) was 1.8 µM (inactive) and the GI50 (LOX IMVI) was 1.73 µM (inactive). For the same molecule, the GI50 (MCF7) was 1.73 µM (inactive), the GI50 (HCT-15) was 1.96 µM and the GI50 (RXF 393) was 1.71 µM (inactive). For the same molecule, the GI50 (EKVX) was 1.92 µM (inactive), the GI50 (SW-620) was 1.53 µM (inactive) and the GI50 (NCI-H226) was 2.01 µM (inactive). The GI50 (HOP-92) was 1.88 µM (inactive), the GI50 (COLO 205) was 1.68 µM (inactive) and the GI50 (786-0) was 1.61 µM (inactive). The GI50 (SK-MEL-5) was 1.78 µM (inactive), the GI50 (SF-295) was 1.96 µM (inactive) and the GI50 (KM12) was 1.79 µM (inactive). The GI50 (A498) was 1.85 µM (inactive), the GI50 (HL-60) was 1.42 µM (inactive) and the GI50 (DU-145) was 2.14 µM (inactive). The GI50 (SK-OV-3) was 2.69 µM (inactive), the GI50 (U-251) was 1.71 µM (inactive) and the GI50 (OVCAR-5) was 1.8 µM (inactive). The GI50 (UACC-62) was 1.78 µM (inactive), the GI50 (HCT-116) was 1.66 µM (inactive) and the GI50 (PC-3) was 1.83 µM (inactive). The GI50 (T47D) was 4.06 µM (inactive), the GI50 (SF-268) was 2.15 µM (inactive) and the GI50 (RPMI-8226) was 1.71 µM (inactive). For the same molecule, the GI50 (NCI/ADR-RES) was 2.04 µM (inactive), the GI50 (Malme-3M) was 1.73 µM (inactive) and the GI50 (MDA-N) was 1.67 µM (inactive). The GI50 (OVCAR-4) was 2.19 µM (inactive), the GI50 (BT-549) was 2.63 µM (inactive) and the GI50 (CAKI-1) was 1.67 µM (inactive). For the same molecule, the GI50 (K562) was 1.87 µM (inactive) and the GI50 (NCI-H23) was 1.95 µM (inactive).
